# Measurements taken from article PMC9503898, “Synthesis and Evaluation of Two Long-Acting SSTR2 Antagonists for Radionuclide Therapy of Neuroendocrine Tumors” (Pharmaceuticals, 2022).
# Positions of bridges follow the written chain, without caps; N, C: chain ends. Non-standard residues stand in square brackets, D forms with d. Residues, ends and D or L forms follow the SMILES beside them. *: point of attachment. DOTA = O=C(O)CN1CCN(CC(=O)O)CCN(CC(=O)*)CCN(CC(=O)O)CC1; dPhe(4-NHCONH2) = NC(=O)Nc1ccc(C[C@@H](N)C(=O)O)cc1; Dihydroorotyl(S) = O=C1C[C@@H](C(=O)*)NC(=O)N1; Phe(4-Cl) = N[C@@H](Cc1ccc(Cl)cc1)C(=O)O; Phe(4-NH2) = Nc1ccc(C[C@H](N)C(=O)O)cc1
# Key:
# [1] = in vivo; details: mouse, iv, 20 MBq/0.5 nmol per animal, total radioactivity
# [2] = in vivo; details: mouse, iv, 0.5 nmol, total radioactivity
# [3] = system: H69 tumor tissues expressing SSTR2; test: Uptake and autoradiography of H69 tumor sections; type: binding, human; details: 10^−9 M, 90 min, rt, 10 μm sections, phosphor screen 48 h
# Method: Subcutaneous fresh frozen H69 tumor tissues were cut at 10 μm thickness and immediately mounted on Starfrost glass slides (Thermo Scientific; Bleiswijk, The Netherlands). Tissue sections were incubated with washing buffer (167 mM Tris-HCl, 5 mM MgCl2) containing 0.25% BSA for 10 min at rt to prevent nonspecific binding. […] Each slide was drained off and washed with PBS. Finally, the slides were exposed to super-resolution phosphor screens for 48 h and imaged with the Cyclone system (PerkinElmer; Waltham, MA, USA). Images were analyzed and quantified using the Optiquant software Version 5 (PerkinElmer; Waltham, MA, USA).
# [4] = system: U2OS-SSTR2 cells; test: Uptake and internalization assay; type: cell-based, human; details: 10^−9 M, 2 h, 37 °C, gamma counter
# Method: Human osteosarcoma cells (U2OS) stably expressing the SSTR2 receptor were used in all in vitro cell assays. Cells were cultured in Dulbecco’s modified Eagle’s medium (DMEM) from Gibco (Paisley, UK) supplemented with 2 mM L-glutamine, 10% fetal bovine serum (FBS), 50 units/mL penicillin, and 50 μg/mL streptomycin (Sigma Aldrich; Haarlerbergweg, The Netherlands) and maintained at 37 °C and in a 5% CO2 humidified chamber. Passages were performed weekly using trypsin/EDTA (0.05%/0.02% w/v).
# Cells were seeded in 6-well plates 48 h before the experiment (2 × 10^5 cells/well). […] After incubation, medium was removed, and cells were washed twice with PBS. The membrane-bound fraction was collected by incubating cells with an acid buffer (50 mM glycine, 100 mM sodium chloride (NaCl), pH 2.8) for 10 min at rt. Cells were lysed using 0.5 M NaOH for 10 min at rt to acquire the internalized fraction. Both fractions were counted in a γ-counter, and data were expressed as percentage of added dose.
# [5] = design: method as in PMID 29668724; details: literature value; cited from earlier work
smiles,measurement,setting,value
"C[C@@H](O)[C@@H]1NC(=O)[C@H](CCCCN)NC(=O)[C@@H](Cc2ccc(NC(N)=O)cc2)NC(=O)[C@H](Cc2ccc(NC(=O)[C@@H]3CC(=O)NC(=O)N3)cc2)NC(=O)[C@H](NC(=O)[C@H](Cc2ccc(Cl)cc2)NC(=O)CN2CCN(CC(=O)O)CCN(CC(=O)O)CCN(CC(=O)O)CC2)CSSC[C@@H](C(=O)N[C@H](Cc2ccc(O)cc2)C(N)=O)NC1=O [[^177Lu]Lu-JR11, metal not drawn] ({DOTA}-[Phe(4-Cl)][dC][Phe(4-NH2)](Dihydroorotyl(S))[dPhe(4-NHCONH2)]KTC[dY]-NH2; disulfide 2-7; N-terminus and C-terminus assumed)",tissue uptake per volume at 4 h,[1],4 ± 0.6 %ID/mL
same,tissue uptake per volume at 24 h,[1],3.3 ± 0.7 %ID/mL
same,tissue uptake per volume at 48 h,[1],2.1 ± 0.5 %ID/mL
same,tissue uptake per volume at 72 h,[1],1.8 ± 0.4 %ID/mL
same,tissue to tissue ratio at 4 h,[2],0.6 ± 0.05
same,tissue to tissue ratio at 72 h,[2],1.2 ± 0.3
same,tissue uptake at 4 h,[2]; Bone Marrow uptake,1.1 ± 2 %ID/g
same,tissue uptake at 4 h,[2]; Intestine uptake,0.5 ± 0.1 %ID/g
same,tissue uptake at 4 h,[2]; Kidneys uptake,12.6 ± 1.2 %ID/g
same,tissue uptake at 24 h,[2]; Kidneys uptake,8.6 ± 2.3 %ID/g
same,tissue uptake at 48 h,[2]; Kidneys uptake,4.1 ± 0.2 %ID/g
same,tissue uptake at 72 h,[2]; Kidneys uptake,3.4 ± 1.4 %ID/g
same,tissue uptake at 4 h,[2]; Liver uptake,0.5 %ID/g
same,tissue uptake at 24 h,[2]; Liver uptake,0.3 %ID/g
same,tissue uptake at 4 h,[2]; Lung uptake,1.3 ± 0.3 %ID/g
same,tissue uptake at 24 h,[2]; Lung uptake,0.4 %ID/g
same,tissue uptake at 4 h,[2]; Pancreas uptake,3.5 ± 0.4 %ID/g
same,tissue uptake at 48 h,[2]; Pancreas uptake,0.6 ± 0.1 %ID/g
same,tissue uptake at 72 h,[2]; Pancreas uptake,0.3 %ID/g
same,tissue uptake at 4 h,[2]; Skin uptake,0.3 ± 0.1 %ID/g
same,tissue uptake at 4 h,[2]; Spleen uptake,0.3 ± 0.1 %ID/g
same,tissue uptake at 4 h,[2]; Stomach uptake,1.7 ± 0.3 %ID/g
same,tissue uptake at 24 h,[2]; Stomach uptake,1.5 ± 1.2 %ID/g
same,tissue uptake at 48 h,[2]; Stomach uptake,0.6 ± 0.2 %ID/g
same,tissue uptake at 72 h,[2]; Stomach uptake,0.4 ± 0.1 %ID/g
same,tissue uptake at 4 h,[2]; Tumor uptake,8.4 ± 0.5 %ID/g
same,tissue uptake at 24 h,[2]; Tumor uptake,6.1 ± 0.5 %ID/g
same,tissue uptake at 48 h,[2]; Tumor uptake,4.6 ± 0.3 %ID/g
same,tissue uptake at 72 h,[2]; Tumor uptake,3.6 ± 0.4 %ID/g
same,Radioactive uptake in H69 tumor tissue sections (autoradiography),[3],930 ± 37 DLU/mm^2
same,Total uptake in U2OS-SSTR2 cells,[4],16.2 ± 3.0 % added dose
same,Log D7.4,[5],−2.5 [18]
